In PubChem BioAssay AID1259418 (Broad Institute, 2018):
Several values for one entry are separate records, joined by “and”; a condition that tells them apart may be missing. Equal values may be shown once. Results filed as inconclusive are left out. Activity calls are given as the source filed them.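 How the source made its calls: active means fitted half-maximal concentration of signal decrease at or below twice the sample's top tested concentration; inconclusive means flat curve between -70 and -30 percent, or poor fit; inactive means flat within 30 percent, signal rise, or potency above limit.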 Positions of bridges follow the written chain, without caps; N, C: chain ends. Non-standard residues stand in square brackets, D forms with d. Residues, ends and D or L forms follow the SMILES beside them. ξ: configuration not given here. *: point of attachment. Heptanoyl(6-Me) = CC(C)CCCCC(=O)*; ξDab = NCCC(N)C(=O)O; ξT = CC(O)C(N)C(=O)O

Biological target: T. gondii ME49Luc in IFN-y HeLa, luciferase, 72 h
Assay: T. gondii growth inhibition with IFN-gamma, dose response, cell-based, ME49Luc, HeLa, luciferase, 72 h (AID 1259418)

Structure (SMILES)	AC50
CCCNC(=O)C[C@H]1CC[C@H]2[C@@H](COC[C@@H](O)CN2C(=O)Nc2ccc(Cl)c(Cl)c2)O1	25.9 µM
COc1ccc(C#Cc2ccc([C@@H]3[C@H](CO)N4C(=O)CN(C(=O)NC(C)C)C[C@@H]34)cc2)cc1	28.3 µM
CCC(=O)N1CC[C@@H]2[C@H]1c1cc(-c3ccc(C#N)cc3)ccc1N(C)[C@H]2CO	> 42 µM (inactive)
CC(C)CC#Cc1ccc([C@H]2[C@@H](CO)N3C(=O)CN(C(=O)Nc4cc(F)ccc4F)C[C@H]23)cc1	22.1 µM and 15.7 µM
CN(C)C1CCN(Cc2cccc(C#N)c2)C(C(=O)O)C1 (stereo unspecified)	9.32 µM
COc1ccc(-c2nc3c(s2)CN(S(=O)(=O)c2cc(C)cc(C)c2)CC3)cc1	3.89 µM and 11.8 µM
CCCN1CCc2nc(SCc3nc(-c4ccccc4OC)oc3C)[nH]c(=O)c2C1	> 39 µM (inactive)
O=C(C1CCCCC1)N1C[C@@H]2N[C@H](C1)C2c1ccc(-c2ccccc2F)cc1 (stereo partly specified)	16.7 µM
N#C[C@@H]1[C@H](c2ccc(-c3cccc(F)c3)cc2)[C@@H](CO)N1C(=O)NC1CCCC1	20.4 µM
Cc1nc(CCNC(=O)C2CCN(S(=O)(=O)c3ccc(C(C)(C)C)cc3)CC2)cs1	31.4 µM
CC(C)Cc1ccc(S(=O)(=O)N2CCC3(CC2)NCCN=C3NC2CCCCC2)cc1	25.6 µM
COc1ccc(N(Cc2nc(-c3ccccc3OC)oc2C)S(=O)(=O)c2cccs2)cc1	3.72 µM
O=C(CCn1c2c(c3ccccc31)CCCC2)N1CCC(c2ccncc2)CC1	15.3 µM
CCc1cnc(N2[C@H](C#N)[C@H](c3ccc(C#Cc4ccccc4F)cc3)[C@@H]2CO)s1	19.4 µM
Fc1cccnc1OC1COC2(CCN(Cc3ccsc3)CC2)C1 (stereo unspecified)	24.8 µM
Cc1cccc(S(=O)(=O)N2C[C@H]3[C@@H](c4ccccc42)[C@@H](CO)N3C(=O)c2ccccc2)c1	> 39 µM (inactive)
CCOc1ccc(-c2nc(CN(c3ccccc3OC)S(=O)(=O)c3cccs3)c(C)o2)cc1	8.23 µM
Cc1ccc(CNC2=NCCNC23CCN(S(=O)(=O)c2ccc(CC(C)C)cc2)CC3)cc1	7.71 µM
Cc1cccc(-c2ccc([C@H]3[C@@H](CO)N4CCCCN(S(=O)(=O)c5ccccc5F)C[C@H]34)cc2)c1	16.9 µM and 13.6 µM
CCCCc1ccc(Nc2ncnc3c2cnn3-c2ccc(C)cc2C)cc1	8.05 µM
N#C[C@H]1[C@H](c2ccc(-c3cccc(F)c3)cc2)[C@@H](CO)N1C(=O)NC1CCCC1	16.7 µM
O=C(O)CC1CCC(c2ccc(-c3ccc(Nc4ccc(C(F)(F)F)nc4)cn3)cc2)CC1 (stereo unspecified)	19 µM
CC(C)CCCCC(=O)NC(CCN)C(=O)NC(C(=O)NC(CCN)C(=O)NC1CCNC(=O)C(C(C)O)NC(=O)C(CCN)NC(=O)C(CCN)NC(=O)[C@H](CC(C)C)NC(=O)[C@@H](CC(C)C)NC(=O)C(CCN)NC1=O)C(C)O (stereo partly drawn) ({Heptanoyl(6-Me)}-[ξDab][ξT][ξDab][ξDab][ξDab][dL]L[ξDab][ξDab][ξT]; lactam 4-C)	18.3 µM

Structure (SMILES)	AC50
Cn1cnc(S(=O)(=O)N2CCCCN3[C@H](CO)[C@H](c4ccc(C5=CCCCC5)cc4)[C@@H]3C2)c1	18.4 µM and 20.2 µM
Fc1ccc(CSc2nc(NCc3ccccc3)c3ccccc3n2)cc1	17.8 µM
O=C(CC1N=C2c3ccccc3N=C(SCc3ccc(Cl)cc3)N2C1=O)NCc1cccs1 (stereo unspecified)	29.4 µM
Cc1nc(OCC(=O)Nc2cc(F)ccc2F)c2ccccc2n1	> 39 µM (inactive)
COc1ccc(CNC(=O)CCC2N=C3c4ccccc4N=C(SCc4cccc(F)c4)N3C2=O)cc1 (stereo unspecified)	20.4 µM
N#C[C@H]1[C@@H](c2ccc(-c3cccc(F)c3)cc2)[C@H](CO)N1C(=O)NC1CCCC1	10.1 µM
COC(=O)C[C@H]1CC[C@@H]2[C@@H](COc3ccc(NC(=O)Nc4cccc(C#N)c4)cc3C(=O)N2C)O1	27.5 µM and 18.5 µM
COc1ccc(C#Cc2ccc([C@H]3[C@H]4CN(C(=O)NC(C)C)CC(=O)N4[C@H]3CO)cc2)cc1	18.5 µM
COc1ccc(-c2nc(N(CCCN3CCOCC3)Cc3ccco3)c3ccccc3n2)cc1	9.51 µM
O=C(Nc1cccc(F)c1)N1CCCCN2[C@@H](CO)[C@@H](c3ccc(C#Cc4cccnc4)cc3)[C@@H]2C1	> 42 µM (inactive)
Cc1nc(OCC(=O)NCc2ccc3c(c2)OCO3)c2ccccc2n1	21.2 µM
Cc1ccccc1S(=O)(=O)N1CCC(C(=O)NCCc2csc(-c3ccccc3)n2)CC1	25.6 µM
COc1ccccc1C(=O)N1CCC2(CC1)Nc1ccc(Cl)cc1-n1cccc12	33.9 µM
COc1ccc(-c2nc(N3CCN(C4CCCCC4)CC3)c3ccccc3n2)cc1	30.1 µM
COCCn1c(=S)[nH]c2cc(C(=O)N3CCC(O)(c4cccc(C(F)(F)F)c4)CC3)ccc2c1=O	34.1 µM
Cc1ccc(-c2coc(-c3ccc(NC(=O)Nc4ccc(Br)cc4)cc3)n2)cc1	> 39 µM (inactive)
CCc1nc(OCC(=O)Nc2ccccc2)c2ccccc2n1	27.7 µM
COc1cccc(-c2nc(C)c(-c3ccc(SCc4cccc(Cl)c4)nn3)s2)c1	11.1 µM
COc1ccccc1S(=O)(=O)N1CC[C@@H]2[C@H]1c1cc(-c3cccc(C#N)c3)ccc1N(C)[C@H]2CO	18.9 µM
COc1ccc(-c2nc(NC3CCN(Cc4ccccc4)CC3)c3ccccc3n2)cc1	26.3 µM
Cc1ccccc1N(Cc1nc(-c2ccccc2)oc1C)S(=O)(=O)c1cccs1	> 39 µM (inactive)
CCCCCCCCCCCCCCCC[N+](C)(C)C	16.3 µM
COc1cccc(NC(=O)COc2nc(C)nc3ccccc23)c1	36.7 µM
